# Source: patent US20190117630A1, “METHODS AND DRUG COMPOSITIONS FOR TREATING LYME DISEASE” (priority 2016, published 2019)
# Where a name gives a salt, the structure may show the parent alone.
# Columns and labels:
# [1] = tested on: doxycycline-tolerant Borrelia persisters; assay: Eradication of doxycycline-tolerant Bb persisters; assay type: cell-based, B. burgdorferi; settings: 5 days, after doxycycline 2.5 μM to 40 μM for 3 days, FIG. 3B
# Protocol: So to identify the drugs that kill drug-tolerant Borrelia persisters, 10^6/ml Borrelia in BSK-II medium was treated with concentrations of doxycycline ranging from 2.5 μM to 40 μM for 3 days. The doxycycline-tolerant persisters were treated with 20 μg and 40 μg Azlocillin for 5 days. After 5 days of treatment, the cultures were pelleted, washed and plated on semisolid BSK-II agarose plates for minimum 21 days. The plates were incubated for regrowth and colonies are counted. The study was performed thrice independently.
# [2] = tested on: Borrelia; assay: Determination of Minimum Bactericidal Concentration (MBC); assay type: cell-based, B. burgdorferi; settings: Borreliella burgdorferi, 504 h; sub-culture in fresh BSK-II medium for 21 days, no spirochete observed
# Protocol: For determining minimum bactericidal concentration (MBC), 20 μl of the 10^6/ml Borrelia cultures grown in BSK-II medium for 72 hours at different drug concentrations were added to the fresh BSK-II medium and sub-cultured for 3 weeks. After 3 weeks of incubation period, the samples were observed microscopically for motile spirochetes in the culture. The MIC and MBC determinations were done thrice independently.
# (§1) To confirm the efficacy of the screening MIC and MBC values were evaluated. The MIC is determined as the lowest concentration at which no motile spirochete is observed by microscopy. […] The MBC was determined by sub-culturing 20 μl of the Borrelia cultures grown at different drug concentrations in fresh BSK-II medium for 21 days. The MBC value was determined when no spirochete was observed microscopically in the culture.
# [3] = tested on: Bb; settings: C3H mouse model, urinary bladders, heart, ear skin
# Protocol: After the synergy was determined the efficacy of the drugs were studied in vivo in the following way: C3H/HeN mice of 4-6 week old were infected intradermally in the abdominal area with 0.1 ml of BSK-II medium containing 10^5 Bb with a 25G tuberculin syringe. […] Cultures were monitored up to 6 weeks for motile spirochetes using darkfield microscopy.
# To evaluate the efficacy of the drugs in vivo, they were tested in a C3H mouse model.
# [4] = tested on: Borrelia cultures; assay: Secondary screening, Borrelia cell viability by BacTiter-Glo Assay; assay type: cell-based, B. burgdorferi; settings: for efficacy (Borrelia cell viability assay): at 0.31 μM, FIG. 1B
# Protocol: FIG. 1 depicts a Borrelia cell viability assay using agents (A) tetraethylthiuram disulfide, doxorubicin hydrochloride, and epirubicin hydrochloride and (B) azlocillin sodium and cephalothin sodium. The results represent mean±SD.
# (§2) The Minimum Inhibitory Concentration (MIC) of the small molecules identified through screening was determined by culturing 10^6/ml Borrelia in BSK-II medium with different concentrations (0.3 μM to 160 μM) of drugs. For MIC, 1 ml cultures with respective drugs were grown in 48 well plates in triplicates, wrapped with paraffin film and placed for 72 hours at 33° C. in a humidified CO2 incubator (Forma Scientific, USA) having 5% CO2 and 95% air. Cell proliferation was assessed using bacterial counting chamber (Petroff-Hausser Counter, Horsham, Pa., USA) by phase contrast microscopy. In parallel cell proliferation was also assessed BacTiter-Glo™ Assay. The counting was performed in all the 25 squares of the central grid. The BacTiter-Glo™ Assay was performed by mixing 100 μl of culture in each well with 100 μl of BacTiter-Glo™ reagent (Promega, Madison, Wis., USA). Then, the assay was performed according to the manufacturer's instructions. Luminescence was measured on a Flex station3 micro-plate reader at luminescence 500 ms.
# The viability of Borellia cultures was evaluated with BacTiter-Glo™ Assay.
# [5] = tested on: Borrelia; assay: Determination of Minimum Inhibitory Concentration (MIC); assay type: cell-based, B. burgdorferi; settings: Borreliella burgdorferi; 72 hours, lowest concentration with no motile spirochete by microscopy
# Protocol: as §2, §1
# [6] = tested on: Borrelia isolate CA8 Bss; assay: Time-kill studies; assay type: cell-based, B. burgdorferi sensu stricto; settings: 1.25 μM, CA8 strain
# Protocol: Time-kill studies were performed with Borrelia isolate CA8 Bss with azlocillin sodium and cefotaxime acid. To determine the rate of antimicrobial activity, 10^6/ml Borrelia cultures were grown in BSK-II medium with drugs at different concentrations. BSK-II medium with no drugs is used as a control. The antibacterial activity was determined by counting bacteria at 24 hours, 48 hours and 72 hours. The experiment was done once with triplicates.
MIC [5],Compound,MBC [2],further results
≤ 3 µM,Cc1nnc(SCC2=C(C(=O)O)N3C(=O)[C@@H](NC(=O)Cn4cnnn4)[C@H]3SC2)s1 [Cefazolin sodium],,
≤ 3 µM,CC(=O)OCC1=C(C(=O)O)N2C(=O)[C@@H](NC(=O)Cc3cccs3)[C@H]2SC1 [Cephalothin sodium],,efficacy (Borrelia cell viability assay) [4]: ~99%
< 1 µM,COc1cccc2c1C(=O)c1c(O)c3c(c(O)c1C2=O)C[C@@](O)(C(=O)CO)C[C@@H]3O[C@H]1C[C@H](N)[C@H](O)[C@H](C)O1 [Doxorubicin hydrochloride],< 1.5 µM,"concentration uniformly effective against Bb ([4]; BacTiter-Glo Assay, FIG. 1A): 0.625 µM"
< 1 µM,COc1cccc2c1C(=O)c1c(O)c3c(c(O)c1C2=O)C[C@@](O)(C(=O)CO)C[C@@H]3O[C@H]1C[C@H](N)[C@@H](O)[C@H](C)O1 [Epirubicin hydrochloride],< 1.5 µM,"concentration uniformly effective against Bb ([4]; BacTiter-Glo Assay, FIG. 1A): 0.625 µM"
,CC(=O)[C@]1(O)Cc2c(O)c3c(c(O)c2[C@@H](O[C@H]2C[C@H](N)[C@H](O)[C@H](C)O2)C1)C(=O)c1ccccc1C3=O [Idarubicin HCl],≤ 10 µM,
≤ 3 µM,CC(=O)NC[C@H]1CN(c2ccc(N3CCOCC3)c(F)c2)C(=O)O1 [Linezolide],,
≤ 3 µM,CCN(CC)C(=S)SSC(=S)N(CC)CC [Tetraethylthiuram disulfide],≤ 10 µM,"concentration showing complete Borrelia cell inhibition ([4]; BacTiter-Glo Assay, FIG. 1A): 1.25 µM"
,CO[C@@H]1[C@@H](O[C@@H]2O[C@H](C)[C@@H](O[C@H]3C[C@@](C)(O)[C@@H](OC(=O)CC(C)C)[C@H](C)O3)[C@H](N(C)C)[C@H]2O)[C@@H](CC=O)C[C@@H](C)[C@@H](O)/C=C/C=C/C[C@@H](C)OC(=O)C[C@H]1O [leucomycin],≤ 10 µM,

Compound,MIC [5],MBC [2],further results
CC1(C)S[C@@H]2[C@H](NC(=O)[C@H](NC(=O)N3CCNC3=O)c3ccccc3)C(=O)N2[C@H]1C(=O)O [Azlocillin sodium],≤ 3 µM,≤ 10 µM,elimination of doxycycline-tolerant Borrelia persisters ([1]; 20 μg): completely eliminated; elimination of doxycycline-tolerant Borrelia persisters ([1]; 40 μg): completely eliminated; elimination of Borrelia infection in vivo (failure to culture live spirochetes from tissues after treatment) [3]: very effective in eliminating Borrelia infection; efficacy (Borrelia cell viability assay) [4]: ~99%
CO/N=C(\C(=O)N[C@@H]1C(=O)N2C(C(=O)O)=C(COC(C)=O)CS[C@H]12)c1csc(N)n1 [Cefotaxime acid],≤ 3 µM,≤ 10 µM,"elimination of doxycycline-tolerant Borrelia persisters ([1]; 40 μg): killed the Borrelia persisters completely; decrease of initial Borrelia inoculum, time-kill [6]: 1 log10-unit; elimination of Borrelia infection in vivo (failure to culture live spirochetes from tissues after treatment) [3]: very effective in eliminating Borrelia infection"
